Test results published in the supplement of paper PMC10883282.

What was measured:
Assay in all cases: relative viability vs DMSO control (72 h) (fraction); higher = more viable cells
SYO-1 = system: SYO-1
Summary of the method: (§1)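 Relative viability is percent growth read by ATPLite and averaged over up to triplicate wells. Sarcoma cells were seeded in 384-well plates to reach 80–90% confluence and given 2.5 µl of serially diluted compound after 24 h, from source plates of 10 mM to 0.0002 mM. Incubation lasted 72 h at 37 °C, 5% CO2, with 0.1% DMSO vehicle and a 5 µM positive control, and the data were rescaled so 1 equals full and 0 equals none.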

SK-LMS-1 = system: SK-LMS-1
Summary of the method: as §1

RD = system: RD
Summary of the method: as §1

HS729 = system: HS729
Summary of the method: as §1

SK-ES-1 = system: SK-ES-1
Summary of the method: as §1

A204 = system: A204
Summary of the method: as §1

VA-ES-BJ = system: VA-ES-BJ
Summary of the method: as §1

KHOS-NP = system: KHOS-NP
Summary of the method: as §1

SW872 = system: SW872
Summary of the method: as §1

MES-SA = system: MES-SA
Summary of the method: as §1

G401 = system: G401
Summary of the method: as §1

SW684 = system: SW684
Summary of the method: as §1

Cc1cn(-c2cc(NC(=O)c3ccc(C)c(Nc4nccc(-c5cnccn5)n4)c3)cc(C(F)(F)F)c2)cn1 [Radotinib]
Conditions | relative viability
A204, 0.00017 µM | 1.09
A204, 0.00051 µM | 1.11
A204, 0.00152 µM | 1.09
A204, 0.00457 µM | 1.13
A204, 0.01372 µM | 1.14
A204, 0.04115 µM | 1.13
A204, 0.1235 µM | 1.11
A204, 0.3704 µM | 1.07
A204, 1.111 µM | 0.836
A204, 3.333 µM | 0.629
A204, 10 µM | 0.451
G401, 0.00017 µM | 1.02
G401, 0.00051 µM | 1.06
G401, 0.00152 µM | 1.07
G401, 0.00457 µM | 1.1
G401, 0.01372 µM | 1.12
G401, 0.04115 µM | 1.11
G401, 0.1235 µM | 1.1
G401, 0.3704 µM | 1.08
G401, 1.111 µM | 1.04
G401, 3.333 µM | 0.984
G401, 10 µM | 0.931
HS729, 0.00017 µM | 0.995
HS729, 0.00051 µM | 1.01
HS729, 0.00152 µM | 1.02
HS729, 0.00457 µM | 1.03
HS729, 0.01372 µM | 0.995
HS729, 0.04115 µM | 0.99
HS729, 0.1235 µM | 1.02
HS729, 0.3704 µM | 1.03
HS729, 1.111 µM | 0.995
HS729, 3.333 µM | 0.8744
HS729, 10 µM | 0.875
KHOS-NP, 0.00017 µM | 1.12
KHOS-NP, 0.00051 µM | 1.09
KHOS-NP, 0.00152 µM | 1.11
KHOS-NP, 0.00457 µM | 1.11
KHOS-NP, 0.01372 µM | 1.12
KHOS-NP, 0.04115 µM | 1.12
KHOS-NP, 0.1235 µM | 1.11
KHOS-NP, 0.3704 µM | 1.1
KHOS-NP, 1.111 µM | 1.1
KHOS-NP, 3.333 µM | 1.09
KHOS-NP, 10 µM | 1.07
MES-SA, 0.00017 µM | 0.935
MES-SA, 0.00051 µM | 0.938
MES-SA, 0.00152 µM | 0.935
MES-SA, 0.00457 µM | 0.941
MES-SA, 0.01372 µM | 0.958
MES-SA, 0.04115 µM | 0.954
MES-SA, 0.1235 µM | 0.981
MES-SA, 0.3704 µM | 0.99
MES-SA, 1.111 µM | 1.01
MES-SA, 3.333 µM | 1.01
MES-SA, 10 µM | 1.03
RD, 0.00017 µM | 1.11
RD, 0.00051 µM | 1.1
RD, 0.00152 µM | 1.12
RD, 0.00457 µM | 1.12
RD, 0.01372 µM | 1.12
RD, 0.04115 µM | 1.11
RD, 0.1235 µM | 1.13
RD, 0.3704 µM | 1.12
RD, 1.111 µM | 1.1
RD, 3.333 µM | 1.07
RD, 10 µM | 1.04
SK-ES-1, 0.00017 µM | 1.02
SK-ES-1, 0.00051 µM | 1.01
SK-ES-1, 0.00152 µM | 1.047
SK-ES-1, 0.00457 µM | 1.04
SK-ES-1, 0.01372 µM | 1.07
SK-ES-1, 0.04115 µM | 1.07
SK-ES-1, 0.1235 µM | 1.05
SK-ES-1, 0.3704 µM | 1.03
SK-ES-1, 1.111 µM | 1.02
SK-ES-1, 3.333 µM | 1.01
SK-ES-1, 10 µM | 1.074
SK-LMS-1, 0.00017 µM | 1.05
SK-LMS-1, 0.00051 µM | 1.07
SK-LMS-1, 0.00152 µM | 1.08
SK-LMS-1, 0.00457 µM | 1.05
SK-LMS-1, 0.01372 µM | 1.08
SK-LMS-1, 0.04115 µM | 1.14
SK-LMS-1, 0.1235 µM | 1.14
SK-LMS-1, 0.3704 µM | 1.19
SK-LMS-1, 1.111 µM | 1.11
SK-LMS-1, 3.333 µM | 1.18
SK-LMS-1, 10 µM | 1.12
SW684, 0.00017 µM | 1.13
SW684, 0.00051 µM | 1.17
SW684, 0.00152 µM | 1.2
SW684, 0.00457 µM | 1.21
SW684, 0.01372 µM | 1.17
SW684, 0.04115 µM | 1.19
SW684, 0.1235 µM | 1.26
SW684, 0.3704 µM | 1.33
SW684, 1.111 µM | 1.38
SW684, 3.333 µM | 1.24
SW684, 10 µM | 1.22
SW872, 0.00017 µM | 1.06
SW872, 0.00051 µM | 1.07
SW872, 0.00152 µM | 1.07
SW872, 0.00457 µM | 1.07
SW872, 0.01372 µM | 1.07
SW872, 0.04115 µM | 1.07
SW872, 0.1235 µM | 1.08
SW872, 0.3704 µM | 1.06
SW872, 1.111 µM | 0.98
SW872, 3.333 µM | 0.915
SW872, 10 µM | 0.889
SYO-1, 0.00017 µM | 0.976
SYO-1, 0.00051 µM | 0.978
SYO-1, 0.00152 µM | 0.987
SYO-1, 0.00457 µM | 0.967
SYO-1, 0.01372 µM | 0.989
SYO-1, 0.04115 µM | 0.988
SYO-1, 0.1235 µM | 0.993
SYO-1, 0.3704 µM | 0.945
SYO-1, 1.111 µM | 0.802
SYO-1, 3.333 µM | 0.688
SYO-1, 10 µM | 0.644
VA-ES-BJ, 0.00017 µM | 1.05
VA-ES-BJ, 0.00051 µM | 1.08
VA-ES-BJ, 0.00152 µM | 1.05
VA-ES-BJ, 0.00457 µM | 1.06
VA-ES-BJ, 0.01372 µM | 1.08
VA-ES-BJ, 0.04115 µM | 1.05
VA-ES-BJ, 0.1235 µM | 1.11
VA-ES-BJ, 0.3704 µM | 1.17
VA-ES-BJ, 1.111 µM | 1.18
VA-ES-BJ, 3.333 µM | 1.21
VA-ES-BJ, 10 µM | 1.21
